Entries after “also recorded” stand apart in the source; their conditions may differ.
Tests used:
[1] = system: retinal ganglion cells (NMDA receptor-mediated neurotoxicity); experiment: Retinal ganglion cell survival assay (endogenous glutamate-related toxin, high calcium, low magnesium medium); type: cell-based, rat (Long-Evans); conditions: FIG. 3'
Description: To test amantadine derivatives for their ability to prevent neurotoxicity, neuronal cell death may be assayed as follows. […] Two to 6 days later, the animals are sacrificed by decapitation and enucleated, and the retinas quickly removed. The retinas are dissociated by mild treatment with the enzyme papain and cultured in Eagle's minimum essential medium (MEM, catalog #1090, Gibco, Grand Island, N.Y.) supplemented with 0.7% (w/v) methylcellulose, 0.3% (w/v) glucose, 2 mM glutamine, 1 μg/ml gentamicin, and 5% (v/v) rat serum, as described in Lipton et al., J. Physiol. 385:361, 1987. The cells are plated onto 75 mm^2 glass coverslips coated with poly-L-lysine in 35 mm tissue culture dishes. […]
To perform the viability test, the cell-culture medium is exchanged for physiological saline containing 0.0005% fluorescein diacetate for 15-45 s, and then cells are rinsed in saline. […] In contrast, the viable retinal ganglion cells display not only a blue color in the UV light but also a yellow-green fluorescence with filters appropriate for fluorescein. Thus, the use of two exchangeable fluorescence filter sets permits the rapid determination of viable ganglion cells in the cultures. […]

[2] = system: kainate (KA)-elicited current (rat retinal ganglion cells); experiment: Whole-cell patch clamp of kainate-elicited current on rat retinal ganglion cells; type: cell-based, rat (Long-Evans); conditions: 12 μM memantine, 50 μM kainate
Excerpt: (§1) FIGS. 4A'-4B' depict evidence for open-channel block of NMDA-elicited whole-cell current by memantine (MEM) on rat retinal ganglion cells. […] A rapid application system was used to administer the drugs, and a fast washout method was used in the experiments shown in FIGS. 4A' and 4B'.
(§2) For retinal ganglion cell labeling, dissociation, and culture, we used techniques that have been detailed elsewhere (Leifer et al. (1984) Science 224:303-306). […] Two to six days later, the animals were killed by decapitation. Following enucleation, the retinas were dissociated with mild treatment with the enzyme papain. The retinal cells were than plated onto glass coverslips coated with poly-L-lysine in 35 mm tissue culture dishes. The growth medium was Eagle's minimum essential medium supplemented with 0.7% (w/v) methylcellulose, 0.3% (w/v) glucose, 2 mM glutamine, 5% (v/v) rat serum, and 1 μg/ml gentamicin. Retinal ganglion cells were identified by the presence of the retrogradely transported dye granular blue.
(§3) Whole-cell and single-channel recordings of rat retinal ganglion cells were performed as described in detail elsewhere (Hamill et al., 1981; Lipton and Tauck, 1987). […]

[3] = system: NMDA receptor (rat retinal ganglion cells); experiment: Whole-cell patch clamp of NMDA-elicited current on rat retinal ganglion cells; type: cell-based, rat (Long-Evans)
Excerpt: as §1, §2
Whole-cell and single-channel recordings of rat retinal ganglion cells were performed as described in detail elsewhere (Hamill et al., 1981; Lipton and Tauck, 1987). The neurons were continuously superfused in a chamber at 27°-29° C. with a bath solution composed of (in mM) NaCl, 137.6; KCl, 5.8; CaCl2, 2.5; HEPES, 5; glucose, 22.2; with phenol red, 0.001% (v/v); glycine, 1 μM; pH 7.2; and no added magnesium. The patch pipettes were filled with an intracellular solution containing (in mM) CsCl, 120; tetraethylammonium chloride, 20; HEPES, 10; EGTA, 2.25; CaCl2, 1; and MgCl2, 2; and sometimes with 3 mM Mg-ATP to minimize rundown in prolonged recordings (pH 7.2). […]. Solution changes could be achieved rapidly, within 50-100 msec, by moving the array of constantly flowing pipette tips relative to the cell with a micromanipulator driver. A control pipette containing bath solution and 1 μM TTX was used to wash out NMDA-inducedcurrent rapidly.

[4] = system: NMDA antagonist (MK-801) binding to post-mortem human brain homogenates; conditions: Kornhuber et al. 1989; cited from earlier work
[5] = system: quisqualate (QUIS)-elicited current (rat retinal ganglion cells); experiment: Whole-cell patch clamp of quisqualate-elicited current on rat retinal ganglion cells; type: cell-based, rat (Long-Evans); conditions: 12 μM memantine, 5 μM quisqualate
Excerpt: as §1, §2, §3

NMDA receptor channels = conditions: Bormann 1989; cited from earlier work
[6] = system: cortical neurons (neuronal survival)
Description: S-nitrosocysteine was added as a source of NO.cndot. to cerebrocortical cultures (Lei et al., (1992) Neuron 8:1087-1099; Stamler et al., (1992) Science 258:1898-1902).
Peroxynitrite leads to lipid peroxidation and massive oxidation of sulfhydryls (Radi et al., (1991) J. Biol. Chem. 266:4244-4250; Radi et al., (1991) Arch. Biochem. Biophys. 288:481-487).
Values are expressed as mean+s.e.m. (n=9). Statistical comparisons were performed by an analysis of variance followed by a Scheffe multiple comparison of means (*, P<0.01 compared to control; **, P<0.05 compared to control; .dagger., P<0.01 compared to nitroso compound+SOD/catalase).
Specifically, the data in FIG. 7 were generated using mixed neuronal and glial cortical cultures from neonatal rats, as described previously (Lei, et al., (1992) Neuron 8:1087-1099). In at least three separate experiments, triplicate cultures were incubated overnight in Earle's buffered saline solution (EBSS) containing various concentrations of SNOC, peroxynitrite, SOD, catalase, or glutamate. […] The culture fluid was assayed for […] (LDH) as an indicator of neuronal survival by measuring the absorbance at 450 nm (Koh et al., (1987) J. Neurosci. Meth. 20:83-90). The cultures were also scored for neuronal viability by cell counting, generally with 0.2% trypan blue, after fixation in 2.5% glutaraldehyde, as described above. Neurons from cultures grown on 15 mm diameter cover slips were counted in a masked fashion in ~30 microscopic fields at 200 x.

[7] = system: NMDA receptor (rat cortical neurons in culture); experiment: Digital fura-2 imaging of NMDA-evoked intracellular [Ca2+] in cultured cortical neurons; type: cell-based, rat (Sprague-Dawley); conditions: after 2 mM DTT; 3 min exposure to 100 μM SNOC; NMDA 50 μM; FIG. 5A, P<0.01
physchem = type: physicochemical; conditions: pH 7.4

Compound	minimal effective concentration ([1]; Rattus norvegicus, compared to control, read-out: Concentration at which increased neuronal survival reached statistical significance)	Effect on retinal ganglion cell death from endogenous glutamate-related toxin ([1]; memantine 1-25 μM, 16-20 h, 37° C.)	Effect on kainate-elicited current [2]	Kinetics for blocking/unblocking NMDA receptor-mediated response [3]	Effect of memantine when administered alone ([3]; 12 μM memantine alone, -60 mV, FIG. 4b' left)	Effect on NMDA-induced current ([3]; 12 μM memantine, 200 μM NMDA, -50 and +50 mV)	Inhibition of response to NMDA ([3]; 12 μM memantine, 200 μM NMDA, -60 mV, n=17)	Inhibition of binding of MK-801 [4]	Effect on quisqualate-elicited current [5]	Block of NMDA receptor channels (NMDA receptor channels)	Killing of cortical neurons [6]	Maximally-lethal concentration [6]	Effect on NMDA-evoked [Ca2+]i response (SNOC experiment) [7]	half-life (physchem)
CC12CC3CC(C)(C1)CC(N)(C3)C2 [memantine, 1-amino-3,5-dimethyl adamantine]	6 µM	prevented retinal ganglion cell death from the endogenous glutamate-related toxin in a dose-dependent manner; also recorded: blocks neuronal cell death mediated by excessive stimulation of the NMDA receptor	did not affect the current	relatively rapid	lack of effect	blocking effect	90%	inhibits the binding of an NMDA antagonist (MK-801)	did not affect the current	blocks NMDA receptor channels				
N[C@@H](CSN=O)C(=O)O [SNOC, S-nitrosocysteine]											dose-dependent killing of cortical neurons	200 µM	recovered only slightly	~30 s

Source: US5747545A, “Method of preventing NMDA receptor complex-mediated Neuronal damage” (priority 1995, dated 1998)
